Data set [1] deals with Beta-3 adrenergic receptor (Homo sapiens, UniProt P13945). Put plainly: Intrinsic activity at recombinant human beta3 adrenergic receptor expressed in CHO cells assessed as accumulation of cyclic AMP after 30 mins relative to isoproterenol. The class given is cell-based.
Data set [2] is described as follows: Solubility of the compound at pH 1.2 buffer solution after 18 hrs by HPLC analysis. The class given is physicochemical.
Data set [3] can be described thus: Membrane permeability in MDCK cells at 50 uM after 60 mins by LC-MS/MS analysis. It is filed as ADME, cell-based, Canis lupus familiaris. The following applies: dog, read-out: permeability.
The target in the next data set is T1, CYP1A2 (Homo sapiens, UniProt P05177).
T1 sequence (P05177 whole entry): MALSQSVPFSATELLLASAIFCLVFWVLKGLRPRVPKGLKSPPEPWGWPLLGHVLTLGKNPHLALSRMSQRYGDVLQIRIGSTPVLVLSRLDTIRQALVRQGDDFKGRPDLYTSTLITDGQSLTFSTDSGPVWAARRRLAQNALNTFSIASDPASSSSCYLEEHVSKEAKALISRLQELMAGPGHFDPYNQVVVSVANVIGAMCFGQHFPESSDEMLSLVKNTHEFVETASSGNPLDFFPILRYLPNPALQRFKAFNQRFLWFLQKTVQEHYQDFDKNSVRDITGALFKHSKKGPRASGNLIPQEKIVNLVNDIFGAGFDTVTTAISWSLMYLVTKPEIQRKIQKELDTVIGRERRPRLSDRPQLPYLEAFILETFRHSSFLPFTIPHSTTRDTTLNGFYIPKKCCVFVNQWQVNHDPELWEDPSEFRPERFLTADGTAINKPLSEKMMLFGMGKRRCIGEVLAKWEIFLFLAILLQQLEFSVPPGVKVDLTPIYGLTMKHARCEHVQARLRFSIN
Put plainly: Inhibition of CYP1A2 (unknown origin) at 10 uM relative to control. The class given is ADME.

The target in the next data set is T2, CYP2C8 (Homo sapiens, UniProt P10632).
T2 sequence (P10632 whole entry): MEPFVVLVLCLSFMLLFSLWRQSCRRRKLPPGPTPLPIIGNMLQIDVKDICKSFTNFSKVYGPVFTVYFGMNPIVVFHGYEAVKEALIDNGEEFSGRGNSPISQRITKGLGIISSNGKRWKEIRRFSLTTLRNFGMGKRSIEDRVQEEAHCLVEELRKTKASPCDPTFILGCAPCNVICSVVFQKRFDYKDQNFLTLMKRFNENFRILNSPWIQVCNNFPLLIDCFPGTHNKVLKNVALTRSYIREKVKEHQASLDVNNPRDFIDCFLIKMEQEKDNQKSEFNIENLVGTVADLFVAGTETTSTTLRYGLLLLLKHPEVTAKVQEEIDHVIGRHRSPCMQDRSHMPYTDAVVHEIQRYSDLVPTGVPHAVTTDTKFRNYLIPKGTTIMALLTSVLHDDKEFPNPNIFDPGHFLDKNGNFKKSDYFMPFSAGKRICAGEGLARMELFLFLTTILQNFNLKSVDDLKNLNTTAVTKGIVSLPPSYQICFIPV
Put plainly: Inhibition of CYP2C8 (unknown origin) at 10 uM relative to control. It is filed as ADME.

A further data set addresses CYP3A4 (Homo sapiens, UniProt P08684). The data set can be described thus: Inhibition of CYP3A4 (unknown origin) at 10 uM relative to control. The class given is ADME.
Data set [4] deals with Rattus norvegicus. The data set can be described thus: Cardiotoxicity in Sprague-Dawley rat assessed as increase in heart beat rate at 3 mg/kg, iv after 30 mins (reference value: 1.8 +/- 0.9%). The following applies: in vivo, 0.5 h. It is filed as toxicity, organism-based.
For data set [5], the system named is Rattus norvegicus. Put plainly: Cardiotoxicity in Sprague-Dawley rat assessed as decrease in heart beat rate at 3 mg/kg, iv after 30 mins (reference value: 4.5 +/- 0.8%). On the set-up: scale not given: the % may be the effect or the level left. It is filed as toxicity, organism-based. The following applies: in vivo, 0.5 h.
Data set [6] deals with Rattus norvegicus. Put plainly: Cardiotoxicity in Sprague-Dawley rat assessed as increase in mean blood pressure at 3 mg/kg, iv after 30 mins (reference value: 1 +/- 0.5%). The following applies: in vivo, 0.5 h. It is filed as toxicity, organism-based.
In data set [7] the target is T3, Alpha-1B adrenergic receptor (Homo sapiens, UniProt P35368).
T3 sequence (P35368 whole entry): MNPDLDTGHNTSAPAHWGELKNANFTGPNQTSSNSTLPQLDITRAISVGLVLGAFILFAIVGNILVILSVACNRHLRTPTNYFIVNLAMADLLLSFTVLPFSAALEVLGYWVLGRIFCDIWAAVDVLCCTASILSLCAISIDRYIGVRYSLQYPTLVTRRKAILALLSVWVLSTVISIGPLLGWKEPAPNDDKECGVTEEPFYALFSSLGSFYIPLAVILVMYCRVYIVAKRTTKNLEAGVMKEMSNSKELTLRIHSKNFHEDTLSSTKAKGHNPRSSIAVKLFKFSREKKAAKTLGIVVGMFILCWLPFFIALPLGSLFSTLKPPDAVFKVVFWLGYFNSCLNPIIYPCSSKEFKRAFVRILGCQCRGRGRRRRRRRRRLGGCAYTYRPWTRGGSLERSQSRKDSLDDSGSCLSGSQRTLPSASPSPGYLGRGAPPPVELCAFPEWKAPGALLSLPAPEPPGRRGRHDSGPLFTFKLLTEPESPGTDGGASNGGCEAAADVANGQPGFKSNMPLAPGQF
The data set can be described thus: Agonist activity at recombinant human alpha1B adrenergic receptor expressed in HEK293 cells after 6 hrs by NFAT-luciferase reporter gene assay. It is filed as cell-based.

Data set [8] addresses T4, Alpha-1D adrenergic receptor (Homo sapiens, UniProt P25100).
T4 sequence (P25100 whole entry): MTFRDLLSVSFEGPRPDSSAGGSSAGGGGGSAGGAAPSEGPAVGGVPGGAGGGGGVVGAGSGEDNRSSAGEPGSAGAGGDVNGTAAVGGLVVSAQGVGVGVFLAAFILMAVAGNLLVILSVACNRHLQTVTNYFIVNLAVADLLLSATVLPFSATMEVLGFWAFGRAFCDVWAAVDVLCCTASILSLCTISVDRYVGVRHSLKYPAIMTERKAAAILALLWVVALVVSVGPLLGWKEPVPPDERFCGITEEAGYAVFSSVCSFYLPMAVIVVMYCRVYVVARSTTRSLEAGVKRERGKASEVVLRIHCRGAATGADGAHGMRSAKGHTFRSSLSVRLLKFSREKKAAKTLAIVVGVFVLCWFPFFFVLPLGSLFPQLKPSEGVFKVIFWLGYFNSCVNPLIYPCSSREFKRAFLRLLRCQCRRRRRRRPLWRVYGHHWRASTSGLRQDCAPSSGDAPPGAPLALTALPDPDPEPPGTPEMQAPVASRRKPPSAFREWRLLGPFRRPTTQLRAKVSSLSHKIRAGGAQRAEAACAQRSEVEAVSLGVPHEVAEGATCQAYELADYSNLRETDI
The data set can be described thus: Agonist activity at recombinant human alpha1D adrenergic receptor expressed in HEK293 cells after 6 hrs by NFAT-luciferase reporter gene assay. The class given is cell-based.

Data set [9] addresses Beta-1 adrenergic receptor (Homo sapiens, UniProt P08588). The data set can be described thus: Intrinsic activity at recombinant human beta1 adrenergic receptor assessed as accumulation of cyclic AMP after 30 mins relative to isoproterenol. The settings on record: 0.5 h.

This is an account of results in ChEMBL document CHEMBL4049422, “Discovery of Novel Indazole Derivatives as Orally Available β3-Adrenergic Receptor Agonists Lacking Off-Target-Based Cardiovascular Side Effects” (J Med Chem, 2017).

≈ marks a conversion by molar mass, not a printed value.

Sequence of Beta-1 adrenergic receptor (P08588 whole entry): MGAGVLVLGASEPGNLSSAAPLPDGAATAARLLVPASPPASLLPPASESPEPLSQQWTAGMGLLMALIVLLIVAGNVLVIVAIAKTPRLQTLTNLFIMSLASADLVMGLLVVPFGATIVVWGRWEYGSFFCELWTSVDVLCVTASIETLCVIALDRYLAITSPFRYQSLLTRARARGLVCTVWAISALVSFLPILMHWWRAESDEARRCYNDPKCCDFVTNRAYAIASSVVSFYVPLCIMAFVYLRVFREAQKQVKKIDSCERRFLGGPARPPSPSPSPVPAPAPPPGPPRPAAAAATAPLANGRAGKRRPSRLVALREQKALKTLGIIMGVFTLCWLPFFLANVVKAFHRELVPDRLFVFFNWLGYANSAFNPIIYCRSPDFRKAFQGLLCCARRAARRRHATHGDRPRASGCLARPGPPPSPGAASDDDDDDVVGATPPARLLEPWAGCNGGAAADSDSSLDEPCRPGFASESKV
Sequence of Beta-3 adrenergic receptor (P13945 whole entry, looked up): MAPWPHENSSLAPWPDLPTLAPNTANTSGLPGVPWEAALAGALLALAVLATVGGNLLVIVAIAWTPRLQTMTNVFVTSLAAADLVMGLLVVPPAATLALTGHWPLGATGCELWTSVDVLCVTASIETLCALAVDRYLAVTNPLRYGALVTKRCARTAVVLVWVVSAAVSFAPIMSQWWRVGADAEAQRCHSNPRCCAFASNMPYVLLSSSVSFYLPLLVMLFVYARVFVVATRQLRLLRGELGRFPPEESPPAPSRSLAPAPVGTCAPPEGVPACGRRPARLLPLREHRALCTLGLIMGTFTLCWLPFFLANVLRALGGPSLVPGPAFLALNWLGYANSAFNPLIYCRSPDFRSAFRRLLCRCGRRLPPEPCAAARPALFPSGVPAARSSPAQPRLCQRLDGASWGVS
Sequence of CYP3A4 (P08684 whole entry): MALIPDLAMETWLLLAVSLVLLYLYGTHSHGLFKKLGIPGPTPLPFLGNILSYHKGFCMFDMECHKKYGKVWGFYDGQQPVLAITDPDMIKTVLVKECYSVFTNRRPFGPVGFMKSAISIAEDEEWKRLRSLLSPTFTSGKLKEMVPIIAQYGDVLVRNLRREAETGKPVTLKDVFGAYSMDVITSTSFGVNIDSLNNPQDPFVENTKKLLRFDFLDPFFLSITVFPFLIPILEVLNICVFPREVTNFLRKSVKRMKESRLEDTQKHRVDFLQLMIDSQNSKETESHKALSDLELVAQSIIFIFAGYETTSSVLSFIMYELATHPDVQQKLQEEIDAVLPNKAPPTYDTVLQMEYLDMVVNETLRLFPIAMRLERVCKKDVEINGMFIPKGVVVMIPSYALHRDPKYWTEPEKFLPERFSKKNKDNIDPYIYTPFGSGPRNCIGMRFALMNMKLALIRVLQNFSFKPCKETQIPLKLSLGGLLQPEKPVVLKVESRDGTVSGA

In the case of `Cc1n[nH]c2cc(OCCNC[C@H](O)c3cccc(NS(=O)(=O)C4CCC4)c3)ccc12`, the figures for the Intrinsic activity in data set [1] and in data set [9] were 105% and 4%, respectively. For the same compound, the solubility at 18 h in data set [2] amounted to 299 µM (≈ 133 µg/mL). The Papp at 1 h, 50 µM in [3] is 5 ×10⁻⁶ cm/s. The inhibition at 10 µM against CYP1A2, on CYP2C8 and against CYP3A4 was less than 34% each time. Moreover, the Activity was 5.8% with Rattus norvegicus [4], 0.9% in the data set on Rattus norvegicus [5] and 2% in the data set on Rattus norvegicus [6]. Further, the EC50 in data set [7] and in data set [8] was more than 10 µM throughout.

Broadly, the solubility is the dissolved amount per volume that the medium holds. By inhibition is commonly meant the percentage by which the read-out fell short of the control. A word on the EC50: it is the concentration giving half of the maximal effect.
